In ChEMBL document CHEMBL1201862, “PubChem BioAssay data set” (2004):
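Five concentrations, 48 hours, 96-well plates. GI50 = concentration required for 50% inhibition of growth.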 Active and inactive are the calls of the source. Cut-off read from the data, not from the text of the source: active = GI50 up to about 1.1 µM and inactive = higher.

What was measured:
Assay in all cases: NCI-60 cell line screen, 48 h
A498 = tested on: A498
COLO 205 = tested on: COLO 205
DU-145 = tested on: DU-145
HCT-116 = tested on: HCT-116
HT-29 = tested on: HT-29
Hs-578T = tested on: Hs-578T
IGROV-1 = tested on: IGROV-1
MOLT-4 = tested on: MOLT-4
NCI-H460 = tested on: NCI-H460
NCI-H522 = tested on: NCI-H522
OVCAR-5 = tested on: OVCAR-5
RXF 393 = tested on: RXF 393
SF-539 = tested on: SF-539
SK-MEL-28 = tested on: SK-MEL-28
SK-MEL-2 = tested on: SK-MEL-2
SR = tested on: SR
TK-10 = tested on: TK-10
U-251 = tested on: U-251
UACC-257 = tested on: UACC-257
UO-31 = tested on: UO-31

Structure (SMILES)	GI50 (A498)	GI50 (COLO 205)	GI50 (DU-145)	GI50 (HCT-116)	GI50 (HT-29)	GI50 (Hs-578T)	GI50 (IGROV-1)	GI50 (MOLT-4)	GI50 (NCI-H460)	GI50 (NCI-H522)	GI50 (OVCAR-5)	GI50 (RXF 393)	GI50 (SF-539)	GI50 (SK-MEL-28)	GI50 (SK-MEL-2)	GI50 (SR)	GI50 (TK-10)	GI50 (U-251)	GI50 (UACC-257)	GI50 (UO-31)
CN1CCc2[nH]nc(-c3n[nH]c4c3CN(C)CC4)c2C1	> 100 µM (inactive)	> 100 µM (inactive)	> 100 µM (inactive)	> 100 µM (inactive)	> 100 µM (inactive)	> 100 µM (inactive)	> 100 µM (inactive)	> 100 µM (inactive)	> 100 µM (inactive)	> 100 µM (inactive)	> 100 µM (inactive)	> 100 µM (inactive)	> 100 µM (inactive)	44.9 µM (inactive)	> 100 µM (inactive)	> 100 µM (inactive)	> 100 µM (inactive)	> 100 µM (inactive)	> 100 µM (inactive)	> 100 µM (inactive)
CCN(CCCl)c1cc(CN(C)C)cc(NC(=O)c2ccc(C(=O)Nc3cc(CN(C)C)cc(N(CC)CCCl)c3)cc2)c1		0.147 µM (active)	0.504 µM (active)	0.0962 µM (active)	0.0951 µM (active)	0.103 µM (active)	0.135 µM (active)	0.0183 µM (active)	< 0.0211 µM (active)	0.0231 µM (active)	0.24 µM (active)	0.0278 µM (active)	0.0762 µM (active)	0.159 µM (active)	0.12 µM (active)	0.0228 µM (active)	0.861 µM (active)	0.0723 µM (active)	0.356 µM (active)	5.21 µM (inactive)
COc1ccc2c(c1)CCN1CCc3cc(OC)c(OC)cc3CC21 (centres undefined)	> 100 µM (inactive)	21.3 µM (inactive)	> 100 µM (inactive)	41.9 µM (inactive)	35 µM (inactive)	89.5 µM (inactive)	> 10 µM (inactive)	39.4 µM (inactive)		> 10 µM (inactive)	> 100 µM (inactive)	69 µM (inactive)	76.4 µM (inactive)	> 100 µM (inactive)		39.8 µM (inactive)	> 100 µM (inactive)	72.3 µM (inactive)	93.8 µM (inactive)	31.8 µM (inactive)
COc1cc(CNc2nc3ccccc3nc2-c2cccs2)cc(OC)c1OC	18.6 µM (inactive)	27.4 µM (inactive)	44.4 µM (inactive)	22.9 µM (inactive)	26.9 µM (inactive)	12.6 µM (inactive)	20.4 µM (inactive)	7.67 µM (inactive)	10.5 µM (inactive)	14 µM (inactive)	4.19 µM (inactive)	14 µM (inactive)	78.5 µM (inactive)	32.3 µM (inactive)		6.87 µM (inactive)	33.8 µM (inactive)	27.6 µM (inactive)	34 µM (inactive)	5.09 µM (inactive)
N#Cc1nc(-c2cccnc2)oc1N	> 100 µM (inactive)	> 100 µM (inactive)	> 100 µM (inactive)	> 100 µM (inactive)	> 100 µM (inactive)	> 100 µM (inactive)	> 100 µM (inactive)	74 µM (inactive)	> 100 µM (inactive)	> 100 µM (inactive)	> 100 µM (inactive)	> 100 µM (inactive)		> 100 µM (inactive)	> 100 µM (inactive)	> 100 µM (inactive)	> 100 µM (inactive)	> 100 µM (inactive)	> 100 µM (inactive)	4.83 µM (inactive)
C=CCc1cccc2cc(C(=O)NC3CCCCC3)c(=N)oc12	16.7 µM (inactive)	16.7 µM (inactive)	16.1 µM (inactive)	13.9 µM (inactive)	27.2 µM (inactive)	11.3 µM (inactive)	> 100 µM (inactive)	> 100 µM (inactive)	16.1 µM (inactive)	> 100 µM (inactive)	17.9 µM (inactive)	31.4 µM (inactive)		17.3 µM (inactive)	3.98 µM (inactive)	63.8 µM (inactive)		27.2 µM (inactive)	25.1 µM (inactive)	
O=C(C/C(=N/O)c1cc(-c2ccccc2)no1)c1ccccc1	> 100 µM (inactive)	> 100 µM (inactive)	> 100 µM (inactive)	20.4 µM (inactive)	> 100 µM (inactive)	26.2 µM (inactive)	30 µM (inactive)	31.8 µM (inactive)	39.6 µM (inactive)	18.7 µM (inactive)	> 100 µM (inactive)	19.8 µM (inactive)	19.3 µM (inactive)	> 100 µM (inactive)	26.1 µM (inactive)	13.6 µM (inactive)	35.1 µM (inactive)	28.6 µM (inactive)	79.8 µM (inactive)	26.4 µM (inactive)
C=C(C)[C@H]1C[C@@H]2O[C@@](O)(/C(C)=C\C(=O)/C=C(/C)C[C@H]3OC(=O)[C@@]24O[C@H]34)[C@@H]1O	> 100 µM (inactive)	> 100 µM (inactive)	> 100 µM (inactive)	> 100 µM (inactive)	> 100 µM (inactive)	> 100 µM (inactive)	> 100 µM (inactive)	> 100 µM (inactive)	> 100 µM (inactive)	> 100 µM (inactive)	> 100 µM (inactive)	25.7 µM (inactive)	> 100 µM (inactive)	> 100 µM (inactive)	> 100 µM (inactive)	47.4 µM (inactive)	> 100 µM (inactive)	> 100 µM (inactive)	> 100 µM (inactive)	
COc1ccc(C(=O)/C=C/c2ccc(OCC#N)cc2)cc1OC	> 10 µM (inactive)	11.9 µM (inactive)	11.6 µM (inactive)	5.09 µM (inactive)	22.3 µM (inactive)	27.4 µM (inactive)	30.5 µM (inactive)	10.3 µM (inactive)	27.7 µM (inactive)	16.8 µM (inactive)	> 10 µM (inactive)	13.2 µM (inactive)	17.9 µM (inactive)	14.6 µM (inactive)		11.8 µM (inactive)	26.9 µM (inactive)	14.3 µM (inactive)	> 10 µM (inactive)	18 µM (inactive)
COc1ccc(/C=C2/C(C)=NN(c3cccc(Cl)c3)/C2=N/c2nc3ccccc3s2)cc1	23.1 µM (inactive)		19.6 µM (inactive)	19.2 µM (inactive)	19.5 µM (inactive)	24.7 µM (inactive)	20.7 µM (inactive)	24.9 µM (inactive)	20.4 µM (inactive)	19.1 µM (inactive)	25.1 µM (inactive)	12 µM (inactive)	26.7 µM (inactive)	20.6 µM (inactive)	22.3 µM (inactive)	23.9 µM (inactive)	29 µM (inactive)	20.7 µM (inactive)	22.6 µM (inactive)	19.3 µM (inactive)
COC(=O)C1=C2Nc3ccccc3C23CCN2C(O)C4(CC5CC67CCOC6CCN6CCC8(c9cccc(OC)c9N(C4)C58O)C67)C4OCCC4(C1)C23 (centres undefined)	64.3 µM (inactive)	> 100 µM (inactive)	36.3 µM (inactive)	34.5 µM (inactive)	> 100 µM (inactive)	22.5 µM (inactive)	87.7 µM (inactive)		76.7 µM (inactive)	36.4 µM (inactive)	> 100 µM (inactive)	49.7 µM (inactive)	> 100 µM (inactive)	97.5 µM (inactive)	84.1 µM (inactive)	14.7 µM (inactive)	> 100 µM (inactive)	35.6 µM (inactive)	> 100 µM (inactive)	> 100 µM (inactive)
O=C(C=P(c1ccccc1)(c1ccccc1)c1ccccc1)c1ccc(-c2cccc([N+](=O)[O-])c2)s1	35.2 µM (inactive)	14 µM (inactive)	> 100 µM (inactive)	61.8 µM (inactive)	29.6 µM (inactive)	52.5 µM (inactive)	50 µM (inactive)	20.6 µM (inactive)	39.4 µM (inactive)	23.7 µM (inactive)	> 100 µM (inactive)	70.8 µM (inactive)	63.4 µM (inactive)	44 µM (inactive)		42.5 µM (inactive)	83.8 µM (inactive)	75.2 µM (inactive)		48.2 µM (inactive)
NS(=O)(=O)c1nnc(NC(=O)Nc2ccc(Cl)c(Cl)c2)s1	22 µM (inactive)	13.9 µM (inactive)	29.4 µM (inactive)	19.5 µM (inactive)	16.7 µM (inactive)	29.2 µM (inactive)		32.5 µM (inactive)	19.1 µM (inactive)	11.7 µM (inactive)	24.5 µM (inactive)	16.7 µM (inactive)	19 µM (inactive)	17.1 µM (inactive)	25.4 µM (inactive)	21.9 µM (inactive)	20.6 µM (inactive)	29.4 µM (inactive)	16.5 µM (inactive)	27.4 µM (inactive)
CN(C)Cc1cc(C(=O)/C=C/c2ccc(Br)cc2)cc(CN(C)C)c1O	14.3 µM (inactive)	1.67 µM (inactive)	12.6 µM (inactive)	6.14 µM (inactive)	3.2 µM (inactive)	18.7 µM (inactive)	11.7 µM (inactive)	3.91 µM (inactive)	7.16 µM (inactive)	3.93 µM (inactive)	19.3 µM (inactive)	2.05 µM (inactive)	14.3 µM (inactive)	12.2 µM (inactive)		5.85 µM (inactive)	13 µM (inactive)	12.9 µM (inactive)	6.53 µM (inactive)	1.82 µM (inactive)
